The structures appear in SMILES notation.

The test system of series [1] is Yellow nutsedge (Cyperus esculentus). Description: Postemergence herbicidal activity, greenhouse spray. Type of series: in vivo. Particulars: Cyperus, post-emergence, 336 h, visual score after 2 weeks, read-out: Post-emergent % control CYPES; for pest or weed control at 500 ppm / pest or weed control at 250 ppm: Table 1; for pest or weed control at 500 ppm: rate 500 ppm; for pest or weed control at 250 ppm: rate 250 ppm; for pest or weed control at 125 ppm: Table 2, rate 125 ppm. Put shortly:
(§1)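 Test compounds, serially diluted into an aqueous acetone–isopropanol–DMSO vehicle with crop oil concentrate and Triton X-155, were atomizer-sprayed over plants at the 1–2 true leaf stage. Plants grew 7–21 days beforehand under ~15 h light; sub-irrigation followed treatment, with vehicle-sprayed controls.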

Series [2] deals with Cocklebur (Xanthium strumarium). The description is as above. The note with it: Xanthium strumarium, post-emergence, 336 h, visual score after 2 weeks, read-out: Post-emergent % control XANST; for pest or weed control at 500 ppm / pest or weed control at 250 ppm: Table 1; for pest or weed control at 500 ppm: rate 500 ppm, 0 no injury, 100 complete kill; for pest or weed control at 250 ppm: rate 250 ppm; for pest or weed control at 125 ppm: Table 2, rate 125 ppm. Type of series: in vivo. Put shortly: as §1

Series [3] deals with Barnyardgrass (Echinochloa crus-galli). Described as above. It is filed as in vivo. Particulars: Echinochloa crus-galli, post-emergence, 336 h, visual score after 2 weeks, read-out: Post-emergent % control ECHCG; for pest or weed control at 500 ppm / pest or weed control at 250 ppm: Table 1; for pest or weed control at 500 ppm: rate 500 ppm; for pest or weed control at 250 ppm: rate 250 ppm; for pest or weed control at 125 ppm: Table 2, rate 125 ppm. Put shortly:
as §1

The subject of series [4] is Lambsquarter (Chenopodium album). The description is as above. It is filed as in vivo. The note with it: Chenopodium album, post-emergence, 336 h, visual score after 2 weeks, read-out: Post-emergent % control CHEAL; for pest or weed control at 500 ppm / pest or weed control at 250 ppm: Table 1; for pest or weed control at 500 ppm: rate 500 ppm; for pest or weed control at 250 ppm: rate 250 ppm; for pest or weed control at 125 ppm: Table 2, rate 125 ppm. Put shortly: as §1

For series [5], the system named is Crabgrass(large) (Digitaria sanguinalis). Kind of series: Preemergence herbicidal activity, soil spray. Type of series: in vivo. The note with it: Digitaria sanguinalis, pre-emergence, 504 h, Table 5, visual score after 3 weeks, read-out: Pre-emergent % control DIGSA; for pest or weed control at 140 ppm: rate 140 ppm; for pest or weed control at 560 ppm: rate 560 ppm. From the text: (§2) Seeds of the desired test plant species were planted in a soil matrix prepared by mixing a loam soil (43 percent silt, 19 percent clay, and 38 percent sand, with a pH of about 8.1 and an organic matter content of about 1.5 percent) and sand in a 70 to 30 ratio. The soil matrix was contained in plastic pots with a surface area of 113 square centimeters. When required to ensure good germination and healthy plants, a fungicide treatment and/or other chemical or physical treatment was applied. A weighed amount, determined by the highest rate to be tested, of each test compound was placed in a 20 mL glass vial and was dissolved in 4 mL of a 97:3 v/v (volume/volume) mixture of acetone and dimethyl sulfoxide to obtain concentrated stock solutions. […] The stock solutions obtained were diluted with a 99.9:0.1 mixture of water and Tween® 155 surfactant to obtain application solutions of known concentration. The solutions containing the highest concentration to be tested were prepared by diluting 2 mL aliquots of the stock solution with 15 mL of the mixture and lower concentrations were prepared by serial dilution of the stock solution. A 2.5 mL aliquot of each solution of known concentration was sprayed evenly onto the soil surface (113 sq. cm) of each seeded pot using a Cornwall 5.0 mL glass syringe fitted with a TeeJet TN-3 hollow cone nozzle to obtain thorough coverage of the soil in each pot. Control pots were sprayed in the same manner with the aqueous mixture. The treated pots and control pots were placed in a greenhouse maintained with an approximate 15 hr photoperiod and temperatures of about 23-29° C. during the day and 22-28° C. during the night. Nutrients and water were added on a regular basis and supplemental lighting was provided with overhead metal halide 1000-Watt lamps as necessary. The water was added by top-irrigation.

For series [6], the system named is Giant Foxtail (Setaria faberi). Description: Preemergence herbicidal activity, soil spray. It is filed as in vivo. The note with it: Setaria faberi, pre-emergence, 504 h, Table 5, visual score after 3 weeks, read-out: Pre-emergent % control SETFA; for pest or weed control at 140 ppm: rate 140 ppm; for pest or weed control at 560 ppm: rate 560 ppm.
Text: as §2

Series [7] has as its system Pigweed (redroot) (Amaranthus retroflexus). Description: Preemergence herbicidal activity, soil spray. The note with it: Amaranthus retroflexus, pre-emergence, 504 h, Table 5, visual score after 3 weeks, read-out: Pre-emergent % control AMARE; for pest or weed control at 140 ppm: rate 140 ppm; for pest or weed control at 560 ppm: rate 560 ppm. Type of series: in vivo.
Text: as §2

The subject of series [8] is Lambsquarter (Chenopodium album). Kind of series: Preemergence herbicidal activity, soil spray. It is filed as in vivo. The note with it: Chenopodium album, pre-emergence, 504 h, Table 5, visual score after 3 weeks, read-out: Pre-emergent % control CHEAL; for pest or weed control at 140 ppm: rate 140 ppm; for pest or weed control at 560 ppm: rate 560 ppm, 100 complete kill or no germination.
Text: as §2

As to `COC(=O)c1nc(-c2ccc(F)c(Cl)c2)cc(N)c1Cl` [Compound 39, Methyl 4-amino-3-chloro-6-(3-chloro-4-fluorophenyl)pyridine-2-carboxylate], the melting point (usually the temperature, or range, at which the solid turns liquid) fell in the range of 169 to 170 °C. In addition, in series [1], the pest or weed control at 500 ppm was found to be 99%. In addition, the pest or weed control at 500 ppm in series [2] was 100%. Besides, the pest or weed control at 500 ppm in [3] turned out to be 95%. In series [4], the pest or weed control at 500 ppm worked out at 100%. The pest or weed control at 140 ppm in [5] was determined as 95%. In addition, the pest or weed control at 140 ppm in series [6] is 75%. Moreover, the pest or weed control at 140 ppm in series [7] came to 100%. The pest or weed control at 140 ppm in [8] is 95%.
Consider `COC(=O)c1nc(-c2ccc(C(F)(F)F)cc2)cc(N)c1Cl` [Compound 28, Methyl 4-amino-3-chloro-6-[4-(trifluoromethyl)phenyl]pyridine-2-carboxylate], for which the melting point was determined as 149 °C. For the same compound, the pest or weed control at 250 ppm in series [1] worked out at 80%. In addition, the pest or weed control at 250 ppm in [2] worked out at 100%. In [3], the pest or weed control at 250 ppm came out at 75%. Also, the pest or weed control at 250 ppm in series [4] is 100%. The pest or weed control at 560 ppm in series [5] is 100%. Also, the pest or weed control at 560 ppm in [6] was found to be 100%. The pest or weed control at 560 ppm in [7] amounted to 100%. Further, in [8], the pest or weed control at 560 ppm was 100%.
With `COC(=O)c1nc(-c2ccc(Cl)cc2F)c(F)c(N)c1F` [Compound 93, Methyl 4-amino-3,5-difluoro-6-(4-chloro-2-fluorophenyl)pyridine-2-carboxylate], the melting point fell in the range of 182 to 183 °C. Further, in series [1], the pest or weed control at 500 ppm turned out to be 80%. Moreover, the pest or weed control at 500 ppm in series [2] turned out to be 100%. In addition, the pest or weed control at 500 ppm in [3] is 90%. Besides, the pest or weed control at 500 ppm in series [4] stood at 95%. In addition, the pest or weed control at 560 ppm in series [5] was 30%. In addition, the pest or weed control at 560 ppm in series [6] stood at 50%. Also, the pest or weed control at 560 ppm in series [7] came to 100%. Also, the pest or weed control at 560 ppm in series [8] was determined as 100%.
Regarding `Nc1c(Cl)c(C(=O)O)nc(-c2ccc(Cl)cc2)c1Cl` [Compound 198, 4-Amino-3,5-dichloro-6-(4-chlorophenyl)pyridine-2-carboxylic acid], the melting point lay within 164 to 165 °C. Further, in series [1], the pest or weed control at 500 ppm came to 90% and the pest or weed control at 125 ppm turned out to be 98%. Further, in series [2], the pest or weed control at 500 ppm stood at 100% and the pest or weed control at 125 ppm is 100%. Further, in series [3], the pest or weed control at 500 ppm stood at 90% and the pest or weed control at 125 ppm is 70%. In addition, in series [4], the pest or weed control at 500 ppm came to 100% and the pest or weed control at 125 ppm came to 100%. Moreover, the pest or weed control at 560 ppm in [5] turned out to be 80%. In addition, in series [6], the pest or weed control at 560 ppm was determined as 90%. The pest or weed control at 560 ppm in series [7] turned out to be 100%. Also, the pest or weed control at 560 ppm in series [8] came to 100%.
In the case of `COC(=O)c1nc(-c2cccc(Cl)c2)cc(N)c1Cl` [Compound 27, Methyl 4-amino-3-chloro-6-(3-chlorophenyl)pyridine-2-carboxylate], the melting point is 141 °C. Besides, in series [1], the pest or weed control at 250 ppm stood at 60%. Moreover, in series [2], the pest or weed control at 250 ppm is 95%. In series [3], the pest or weed control at 250 ppm was 70%. Besides, the pest or weed control at 250 ppm in [4] came to 95%. Besides, the pest or weed control at 560 ppm in series [5] stood at 100%. The pest or weed control at 560 ppm in series [6] was 100%. Besides, in series [7], the pest or weed control at 560 ppm turned out to be 100%. The pest or weed control at 560 ppm in [8] is 100%.
`CCc1ccc(-c2cc(N)c(Cl)c(C(=O)O)n2)cc1` [Compound 175, 4-Amino-3-chloro-6-(4-ethylphenyl)pyridine-2-carboxylic acid]: the melting point came out at 152 °C. In addition, the pest or weed control at 500 ppm in [1] came out at 0%. Besides, the pest or weed control at 500 ppm in series [2] was determined as 100%. Moreover, the pest or weed control at 500 ppm in series [3] worked out at 80%. Further, the pest or weed control at 500 ppm in series [4] came out at 99%. Further, the pest or weed control at 140 ppm in series [5] was 100%. Further, the pest or weed control at 140 ppm in series [6] came to 95%. Moreover, the pest or weed control at 140 ppm in [7] was found to be 95%. Further, in series [8], the pest or weed control at 140 ppm is 100%.
Regarding `Cc1ccc(-c2nc(C(=O)O)c(F)c(N)c2F)cc1` [Compound 203, 4-Amino-3,5-difluoro-6-(4-methylphenyl)pyridine-2-carboxylic acid], the melting point lay in the range of 144 to 145 °C. Also, the pest or weed control at 500 ppm in series [1] came out at 95%. For the same compound, in series [2], the pest or weed control at 500 ppm is 100%. Moreover, the pest or weed control at 500 ppm in series [3] turned out to be 95%. Further, the pest or weed control at 500 ppm in series [4] stood at 100%. Further, in [5], the pest or weed control at 140 ppm came to 100%. The pest or weed control at 140 ppm in [6] was 85%. In series [7], the pest or weed control at 140 ppm is 100%. The pest or weed control at 140 ppm in [8] is 95%.
In turn, `COC(=O)c1nc(-c2ccc(Cl)cc2Cl)cc(N)c1Cl` [Compound 13, Methyl 4-amino-3-chloro-6-(2,4-dichlorophenyl)pyridine-2-carboxylate] gave a melting point of 130 to 131 °C. The pest or weed control at 250 ppm in series [1] is 80%. The pest or weed control at 250 ppm in series [2] was determined as 100%. Moreover, in series [3], the pest or weed control at 250 ppm was determined as 70%. In addition, the pest or weed control at 250 ppm in [4] worked out at 100%. For the same compound, the pest or weed control at 560 ppm in series [5] was determined as 90%. Moreover, the pest or weed control at 560 ppm in series [6] turned out to be 100%. For the same compound, the pest or weed control at 560 ppm in series [7] was found to be 100%. The pest or weed control at 560 ppm in [8] was found to be 100%.
`Nc1cc(-c2ccc(F)c(Cl)c2)nc(C(=O)O)c1Cl` [Compound 151, 4-Amino-3-chloro-6-(3-chloro-4-fluorophenyl)pyridine-2-carboxylic acid] showed a melting point of 183 to 184 °C. For the same compound, in series [1], the pest or weed control at 500 ppm was 85% and the pest or weed control at 125 ppm amounted to 90%. In series [2], the pest or weed control at 500 ppm came out at 100% and the pest or weed control at 125 ppm is 100%. In addition, in series [3], the pest or weed control at 500 ppm worked out at 100% and the pest or weed control at 125 ppm turned out to be 85%. Also, in series [4], the pest or weed control at 500 ppm worked out at 100% and the pest or weed control at 125 ppm amounted to 100%. For the same compound, the pest or weed control at 140 ppm in series [5] was determined as 100%. Further, the pest or weed control at 140 ppm in series [6] is 100%. Besides, the pest or weed control at 140 ppm in series [7] is 100%. In series [8], the pest or weed control at 140 ppm came out at 100%.

(Values after US6784137B2, “6-aryl-4-aminopicolinates and their use as herbicides” (Dow AgroSciences LLC, priority 2001, dated 2004).)
